Measurements: patent publication US20240382529A1, “COMPOSITIONS AND METHODS FOR TREATING SPINAL CORD INJURIES” (ASTERIAS BIOTHERAPEUTICS, INC., priority 2022, published 2024)

B1: Decorin: extracellular small leucine-rich proteoglycan, TGF-β1/2 antagonist; recombinant form used in rat SCI models (protein, UniProt P07585 31-359, looked up)
Decorin: DEASGIGPEVPDDRDFEPSLGPVCPFRCQCHLRVVQCSDLGLDKVPKDLPPDTTLLDLQNNKITEIKDGDFKNLKNLHALILVNNKISKVSPGAFTPLVKLERLYLSKNQLKELPEKMPKTLQELRAHENEITKVRKVTFNGLNQMIVIELGTNPLKSSGIENGAFQGMKKLSYIRIADTNITSIPQGLPPSLTELHLDGNKISRVDAASLKGLNNLAKLGLSFNSISAVDNGSLANTPHLRELHLDNNKLTRVPGGLAEHKYIQVVYLHNNNISVVGSSDFCPPGHNTKKASYSGVSLFSNPVQYWEIQPSTFRCVYVRSAIQLGNYK

How the values were obtained:
[1] = tested on: T3 to T11 neurologically complete spinal cord injuries (SCI); assay: Phase 1 thoracic SCI trial of LCTOPC1 (NCT01217008): safety, adverse events; format: in vivo, human; details: 60 days immunosuppression
Procedure: Study design. The trial design was an open-label, multicenter study. A single dose of 2×10^6 LCTOPC1 was injected within 7 to 14 days following SCI. Subjects who received LCTOPC1 also received tacrolimus to prevent rejection. Subjects will be followed by protocol for 15 years following administration of LCTOPC1. This study was a Phase 1, multi-center, non-randomized, a single group assignment interventional clinical trial. The Participants were enrolled from one of seven centers in the United Sates. The study was registered (NCT01217008) and the primary endpoint was safety, as measured by the frequency and severity of adverse events related to LCTOPC1, the injection procedure used to administer LCTOPC1, and/or the concomitant immunosuppression administered. The secondary endpoint was neurological function as measured by sensory scores and lower extremity motor scores on […] examinations. […] The primary endpoint was safety measured by the frequency and severity of adverse events related to the OPC1 injection, the injection procedure, and/or the concomitant immunosuppression administered. The secondary endpoint was neurological function as measured by sensory scores and lower extremity motor scores as measured by the […] examinations. […] The severity of AEs and the characterization of Serious Adverse Events (SAEs) were evaluated using standard FDA criteria. […]

[2] = tested on: subacute cervical spinal cord injuries (SCI); assay: Phase 1/2a cervical SCI trial: safety, adverse events; format: in vivo, human
Procedure: Study Design. The trial design was an open-label, staggered dose escalation, cross-sequential, multicenter study. Three sequential, escalating doses of AST-OPC1 were administered at a single time point between 21 and 42 days post-injury to subjects with subacute cervical spinal cord injuries (SCI). Subjects received AST-OPC1 via direct intra-spinal injection using a Syringe Positioning Device (SPD). To prevent rejection of engraftment, low dose tacrolimus was initiated 6 to 12 hours after and intra-spinal injection, and continued for 46 days, tapered from Day 46 to Day 60, and was discontinued at Day 60. Subjects were followed for 1 year following administration of AST-OPC1 under this protocol. Male or female subjects from 18 to 69 years of age at time of consent with sensorimotor complete, traumatic SCI (American Spinal Injury Association Impairment Scale A) or sensorimotor incomplete, traumatic SCI (American Spinal Injury Association Impairment Scale B). […] There was a single spinal cord lesion on a post-stabilization magnetic resonance imaging (MRI) scan, with sufficient visualization of the spinal cord injury epicenter and lesion margins to enable post-injection safety monitoring. Subjects were able to participate in an elective surgical procedure to inject AST-OPC1 21 to 42 days following SCI. Subjects received a single dose of either 2×10^6, 1×10^7, or 2×10^7 AST-OPC1 viable cells by injection, administered 21 to 42 days following SCI. The product was delivered intraoperatively into the spinal cord using the Syringe Positioning Device. The AST-OPC1 batch numbers used in this study were M08D1A, M22D1A and M25D1A. Single administration of AST-OPC1 was provided with 1 year of follow-up. Schematics of the planned study timeline, and subject screening and treatment, are provided in FIG. 6 and FIG. 7, respectively. A schematic diagram of the final open-label, staggered dose-escalation, multicenter Phase 1/2a clinical trial is shown in FIG. 8. An overview of study visits for the one-year protocol is presented in the study schema in FIG. 9.
A neurological examination was completed using the standardized International Standards for Neurological Classification of Spinal Cord Injury (ISNCSCI) examination for motor and sensory testing and for designation of the American Spinal Injury Association impairment scale. The ISNCSCI is used for efficacy with respect to improved motor function in the extremities, improved sensory function, and/or a descending neurological level. Safety assessments included physical examination, vital signs, ISNCSCI neurological examination, pain questionnaire (International Spinal Cord Injury Pain Basic Data Set, ISCIPBDS), electrocardiogram (ECG), Magnetic Resonance Imaging (MRI), laboratory tests, concomitant medications, and adverse events (AEs). Results for the ISNCSCI were listed for each subject by scheduled visit and analyzed by change in motor level and motor scores as well as other exploratory assessments of arm/hand function, self-care ability and overall volitional performance. Adverse events were tabulated by system organ class and by preferred term within system organ class according to the Medical Dictionary for Regulatory Activities (MedDRAR) Version 18.0. S[…] of the safety data was performed using descriptive statistical methods including AEs incidence, severity and relatedness to AST-OPC1, to the injection procedure for product administration, and concomitant immunosuppression with tacrolimus. The number of laboratory assessments (hematology, clinical chemistry) that were below, within, or above the normal laboratory reference range were summarized for each analyte at scheduled study visits. Vital signs were summarized by calculating the mean, standard deviation, median, and range of values at each of the protocol-specified time points.
Study Endpoints. […]

[3] = tested on: dorsal funicular lesion (DFL) SCI model; details: cited from earlier work

Row | Molecule | Grade 1 AEs possibly related specifically to tacrolimus [1] | Grade 2 AEs possibly related specifically to tacrolimus [1] | AEs related to Tacrolimus that were hypomagnesemia ([2]; both, human, in vivo, 60 days) | Decreased Appetite: Severity ([2]; both, human, in vivo, 60 days) | Hypomagnesemia: Days from Injection ([2]; both, human, in vivo, 60 days) | Hypomagnesemia: Severity ([2]; both, human, in vivo, 60 days) | Nausea: Days from Injection ([2]; both, human, in vivo, 60 days) | Nausea: Severity ([2]; both, human, in vivo, 60 days) | Bacterial infection: Days from Injection ([2]; causality Tacrolimus) | Bacterial infection: Outcome ([2]; causality Tacrolimus) | Bacterial infection: Severity ([2]; causality Tacrolimus) | Decreased Appetite: Outcome ([2]; in vivo) | Hypomagnesemia: Outcome ([2]; in vivo) | Nausea: Outcome ([2]; in vivo) | tolerability of immunosuppression ([2]; in vivo) | effect on scarring and wound cavitation ([3]; DFL SCI model, adult rats) | axonal regrowth ([3]; Decorin-treated vs PBS-treated DFL) | inflammation, glial scar formation, CSPG expression ([3]; after acute spinal cord injury)
1 | C=CC[C@@H]1/C=C(\C)C[C@H](C)C[C@H](OC)[C@H]2O[C@@](O)(C(=O)C(=O)N3CCCC[C@H]3C(=O)O[C@H](/C(C)=C/[C@@H]3CC[C@@H](O)[C@H](OC)C3)[C@H](C)[C@@H](O)CC1=O)[C@H](C)C[C@@H]2OC [Tacrolimus, tacrolimus] | Seven Grade 1 AEs | nine Grade 2 AEs | 8/11 | Grade 2 | 5 to 43 days | 1-2 Grade | 7 days | Grade 2 | 30 days | Resolved | Grade 3 | Resolved | Resolved | Resolved | well-tolerated | – | – | –
2 | B1 | – | – | – | – | – | – | – | – | – | – | – | – | – | – | – | suppressed acute scarring (fibrogenesis) and wound cavitation | promoted axonal regrowth in both acute and chronic experiments | inhibit inflammation, glial scar formation and CSPG expression
